Laboratory results taken from PMC7615656 (European journal of pharmacology, 2010).

What was measured:
[1] = biological target: recombinant rat α4β3γ2 receptors (Rattus norvegicus, UniProt P18508+P28471); experiment: Two-electrode voltage clamp of GABA-induced chloride currents in Xenopus oocytes; type: cell-based; details: for efficacy (% GABA EC3): ns = not significant
[2] = biological target: recombinant rat α5β3γ2 receptors (Rattus norvegicus, UniProt P18508+P19969); experiment: as above; type: cell-based; details: α5β3γ2; for efficacy (% GABA EC3): ns = not significant
[3] = biological target: recombinant rat α1β3γ2F77I receptors (Rattus norvegicus, UniProt P18508+P62813, F115I); experiment: as above; type: cell-based; details: α1β3γ2F77I, ns = not significant
[4] = biological target: recombinant rat α6β3γ2 receptors (Rattus norvegicus, UniProt P18508+P30191); experiment: as above; type: cell-based; details: α6β3γ2; for efficacy (% GABA EC3): ns = not significant
[5] = test system: GABAA receptors containing the γ2F77I mutation; experiment: Modulation of GABA EC3 in receptors containing the γ2F77I mutation; type: cell-based, rat
[6] = biological target: recombinant rat α1β3γ2 receptors (Rattus norvegicus, UniProt P18508+P62813); experiment: Two-electrode voltage clamp of GABA-induced chloride currents in Xenopus oocytes; type: cell-based; details: α1β3γ2; for efficacy (% GABA EC3): ns = not significant
[7] = biological target: recombinant rat α4β3γ2F77I receptors (Rattus norvegicus, UniProt P18508+P28471, F115I); experiment: as above; type: cell-based; details: ns = not significant
[8] = biological target: recombinant rat α5β3γ2F77I receptors (Rattus norvegicus, UniProt P18508+P19969, F115I); experiment: as above; type: cell-based; details: α5β3γ2F77I, ns = not significant
[9] = biological target: recombinant rat α3β3γ2 receptors (Rattus norvegicus, UniProt P18508+P20236); experiment: as above; type: cell-based; details: α3β3γ2, ns = not significant
Chain of recombinant rat α3β3γ2 receptors (P20236 29-493): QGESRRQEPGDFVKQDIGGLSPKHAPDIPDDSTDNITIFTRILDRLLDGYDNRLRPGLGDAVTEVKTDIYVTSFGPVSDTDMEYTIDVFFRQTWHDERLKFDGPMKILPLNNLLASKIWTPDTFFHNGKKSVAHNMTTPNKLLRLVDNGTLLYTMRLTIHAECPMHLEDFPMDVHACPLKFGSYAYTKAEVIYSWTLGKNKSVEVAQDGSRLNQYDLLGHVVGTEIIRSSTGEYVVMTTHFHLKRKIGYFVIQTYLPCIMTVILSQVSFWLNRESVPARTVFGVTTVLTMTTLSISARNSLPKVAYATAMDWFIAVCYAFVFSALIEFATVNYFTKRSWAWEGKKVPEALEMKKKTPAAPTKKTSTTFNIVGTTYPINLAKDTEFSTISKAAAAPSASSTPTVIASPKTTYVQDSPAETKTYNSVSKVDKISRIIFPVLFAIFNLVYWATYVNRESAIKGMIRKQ
Chain of recombinant rat α3β3γ2 receptors (P63079 26-473 partner): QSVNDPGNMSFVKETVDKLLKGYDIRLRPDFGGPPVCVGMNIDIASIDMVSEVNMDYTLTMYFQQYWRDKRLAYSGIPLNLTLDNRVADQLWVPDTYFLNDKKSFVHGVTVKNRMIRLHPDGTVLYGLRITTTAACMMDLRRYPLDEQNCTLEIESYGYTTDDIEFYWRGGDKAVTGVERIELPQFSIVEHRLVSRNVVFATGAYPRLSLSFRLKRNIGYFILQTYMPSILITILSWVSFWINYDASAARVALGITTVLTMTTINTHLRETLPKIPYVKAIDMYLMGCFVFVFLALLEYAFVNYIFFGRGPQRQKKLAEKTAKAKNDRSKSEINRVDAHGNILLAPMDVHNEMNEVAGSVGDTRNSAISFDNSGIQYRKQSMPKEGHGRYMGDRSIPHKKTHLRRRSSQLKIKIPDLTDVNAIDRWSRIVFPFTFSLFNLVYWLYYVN
Chain of recombinant rat α3β3γ2 receptors (P18508 39-466): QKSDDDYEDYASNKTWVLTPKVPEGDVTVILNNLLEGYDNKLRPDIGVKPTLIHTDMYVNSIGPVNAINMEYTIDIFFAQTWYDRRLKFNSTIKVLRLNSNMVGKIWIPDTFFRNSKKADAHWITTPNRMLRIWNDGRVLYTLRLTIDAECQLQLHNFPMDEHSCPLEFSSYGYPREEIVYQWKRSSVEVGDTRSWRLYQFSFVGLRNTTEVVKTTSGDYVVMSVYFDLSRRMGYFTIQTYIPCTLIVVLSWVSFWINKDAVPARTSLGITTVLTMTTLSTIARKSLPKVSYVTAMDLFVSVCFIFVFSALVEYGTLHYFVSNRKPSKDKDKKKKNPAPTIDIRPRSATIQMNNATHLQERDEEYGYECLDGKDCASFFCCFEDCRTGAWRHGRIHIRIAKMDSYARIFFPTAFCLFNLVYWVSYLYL

[10] = biological target: recombinant rat α2β3γ2F77I receptors (Rattus norvegicus, UniProt P18508+P23576, F115I); experiment: as above; type: cell-based; details: α2β3γ2F77I, ns = not significant
[11] = biological target: recombinant rat α2β3γ2 receptors (Rattus norvegicus, UniProt P18508+P23576); experiment: as above; type: cell-based; details: α2β3γ2, ns = not significant
[12] = biological target: recombinant rat α3β3γ2F77I receptors (Rattus norvegicus, UniProt P18508+P20236, F115I); experiment: as above; type: cell-based; details: α3β3γ2F77I, ns = not significant
Chain of recombinant rat α3β3γ2F77I receptors (P20236 29-493): as the sequence (P20236 29-493) above
Chain of recombinant rat α3β3γ2F77I receptors (P63079 26-473 partner): as the sequence (P63079 26-473 partner) above
Chain of recombinant rat α3β3γ2F77I receptors (P18508 39-466 F115I): as the sequence (P18508 39-466) above, with F77I counted along it

[13] = biological target: recombinant rat α6β3γ2F77I receptors (Rattus norvegicus, UniProt P18508+P30191, F115I); experiment: as above; type: cell-based; details: ns = not significant
[14] = test system: GABAA receptors of mice containing the point mutation γ2F77I; details: receptor binding; ref Ogris et al., 2004; cited from earlier work

Chain of recombinant rat α4β3γ2 receptors (P28471 36-552): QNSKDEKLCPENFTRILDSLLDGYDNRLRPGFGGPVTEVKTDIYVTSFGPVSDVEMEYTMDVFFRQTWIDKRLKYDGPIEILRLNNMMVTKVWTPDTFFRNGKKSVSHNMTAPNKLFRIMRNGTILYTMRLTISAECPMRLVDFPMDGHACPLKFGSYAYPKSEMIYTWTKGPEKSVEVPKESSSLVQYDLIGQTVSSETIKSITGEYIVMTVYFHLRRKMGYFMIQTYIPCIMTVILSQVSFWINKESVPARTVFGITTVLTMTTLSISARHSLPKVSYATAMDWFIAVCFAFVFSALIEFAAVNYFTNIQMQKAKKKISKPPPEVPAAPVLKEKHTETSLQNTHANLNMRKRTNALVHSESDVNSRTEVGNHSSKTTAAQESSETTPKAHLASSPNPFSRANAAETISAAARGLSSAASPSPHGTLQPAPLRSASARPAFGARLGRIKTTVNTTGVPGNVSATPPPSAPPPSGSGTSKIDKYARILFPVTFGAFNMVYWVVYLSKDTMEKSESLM
Chain of recombinant rat α4β3γ2 receptors (P63079 26-473 partner): as the sequence (P63079 26-473 partner) above
Chain of recombinant rat α4β3γ2 receptors (P18508 39-466): as the sequence (P18508 39-466) above

SMILES: CCOC(=O)c1ncn2c1CN(C)C(=O)c1cc(F)ccc1-2 [Ro15–1788, ethyl-8-fluoro-5,6-dihydro-5-methyl-6-oxo-4H-imidazo[1,5-a][1,4]benzodiazepine-3-carboxylate]
- EC50 [1]: > 232 nM
- efficacy (% GABA EC3) ([1]; 10 nM, α4β3γ2): ns
- efficacy (% GABA EC3) ([1]; 100 nM, α4β3γ2): 132 ± 8 % GABA EC3
- efficacy (% GABA EC3) ([1]; 1 μM, α4β3γ2): 162 ± 19 % GABA EC3
- efficacy (% GABA EC3) ([1]; 10 μM, α4β3γ2): 181 ± 10 % GABA EC3
- efficacy (% GABA EC3) ([2]; 10 nM): ns
- efficacy (% GABA EC3) ([2]; 100 nM): ns
- efficacy (% GABA EC3) ([2]; 1 μM): ns
- efficacy (% GABA EC3) ([2]; 10 μM): ns
- maximal effect on GABA-induced chloride flux (GABA EC3), % of control current ([2]; control current = 100%): no significant effects
- efficacy (% GABA EC3) ([3]; 10 nM): ns
- efficacy (% GABA EC3) ([3]; 100 nM): ns
- efficacy (% GABA EC3) ([3]; 1 μM): ns
- efficacy (% GABA EC3) ([3]; 10 μM): ns
- efficacy (% GABA EC3) ([4]; 10 nM): ns
- efficacy (% GABA EC3) ([4]; 100 nM): 128 ± 18 % GABA EC3
- efficacy (% GABA EC3) ([4]; 1 μM): 166 ± 9 % GABA EC3
- efficacy (% GABA EC3) ([4]; 10 μM): 179 ± 6 % GABA EC3
- activity in the mutated receptors ([5]; up to 100 nM): inactive
- efficacy (% GABA EC3) ([6]; 10 nM): ns
- efficacy (% GABA EC3) ([6]; 100 nM): ns
- efficacy (% GABA EC3) ([6]; 1 μM): ns
- efficacy (% GABA EC3) ([6]; 10 μM): ns
- maximal effect on GABA-induced chloride flux (GABA EC3), % of control current ([6]; control current = 100%): no significant effects
- efficacy (% GABA EC3) ([7]; 10 nM): ns
- efficacy (% GABA EC3) ([7]; 100 nM): ns
- efficacy (% GABA EC3) ([7]; 1 μM): ns
- efficacy (% GABA EC3) ([7]; 10 μM): ns
- efficacy (% GABA EC3) ([8]; 10 nM): ns
- efficacy (% GABA EC3) ([8]; 100 nM): ns
- efficacy (% GABA EC3) ([8]; 1 μM): ns
- efficacy (% GABA EC3) ([8]; 10 μM): ns
- efficacy (% GABA EC3) ([9]; 10 nM): 128 ± 4 % GABA EC3
- efficacy (% GABA EC3) ([9]; 100 nM): 148 ± 7 % GABA EC3
- efficacy (% GABA EC3) ([9]; 1 μM): 156 ± 8 % GABA EC3
- efficacy (% GABA EC3) ([9]; 10 μM): 157 ± 8 % GABA EC3
- efficacy (% GABA EC3) ([10]; 10 nM): ns
- efficacy (% GABA EC3) ([10]; 100 nM): ns
- efficacy (% GABA EC3) ([10]; 1 μM): ns
- efficacy (% GABA EC3) ([10]; 10 μM): ns
- efficacy (% GABA EC3) ([11]; 10 nM): 121 ± 2 % GABA EC3
- efficacy (% GABA EC3) ([11]; 100 nM): 128 ± 4 % GABA EC3
- efficacy (% GABA EC3) ([11]; 1 μM): 130 ± 5 % GABA EC3
- efficacy (% GABA EC3) ([11]; 10 μM): 133 ± 7 % GABA EC3
- efficacy (% GABA EC3) ([12]; 10 nM): ns
- efficacy (% GABA EC3) ([12]; 100 nM): 106 ± 1 % GABA EC3
- efficacy (% GABA EC3) ([12]; 1 μM): 118 ± 2 % GABA EC3
- efficacy (% GABA EC3) ([12]; 10 μM): 139 ± 4 % GABA EC3
- efficacy (% GABA EC3) ([13]; 10 nM): ns
- efficacy (% GABA EC3) ([13]; 100 nM): ns
- efficacy (% GABA EC3) ([13]; 1 μM): ns
- efficacy (% GABA EC3) ([13]; 10 μM): ns

SMILES: Cc1ccc(-c2nc3ccc(C)cn3c2CC(=O)N(C)C)cc1 [Zolpidem, N,N,6-trimethyl-2-(4-methylphenyl)imidazo[1,2-a]-pyridine-3-acetamide]
- efficacy (% GABA EC3) ([1]; 100 nM, α4β3γ2): ns
- efficacy (% GABA EC3) ([1]; 1 μM, α4β3γ2): ns
- efficacy (% GABA EC3) ([1]; 10 μM, α4β3γ2): ns
- maximal effect on GABA-induced chloride flux (GABA EC3), % of control current ([1]; α4β3γ2, control current = 100%): did not significantly enhance
- efficacy (% GABA EC3) ([2]; 100 nM): ns
- efficacy (% GABA EC3) ([2]; 1 μM): ns
- efficacy (% GABA EC3) ([2]; 10 μM): ns
- efficacy (% GABA EC3) ([2]; 10 μM, listed as zolpidem): unable to modulate
- efficacy (% GABA EC3) ([3]; 100 nM): ns
- efficacy (% GABA EC3) ([3]; 1 μM): ns
- efficacy (% GABA EC3) ([3]; 10 μM): 142 ± 8 % GABA EC3
- efficacy (% GABA EC3) ([4]; 10 μM): ns
- maximal effect on GABA-induced chloride flux (GABA EC3), % of control current ([4]; control current = 100%): did not significantly enhance
- stimulation of GABA-induced chloride flux ([5]; 10 μM, some γ2F77I receptors): 20–40%
- efficacy (% GABA EC3) ([8]; 100 nM): ns
- efficacy (% GABA EC3) ([8]; 1 μM): ns
- efficacy (% GABA EC3) ([10]; 100 nM): ns
- efficacy (% GABA EC3) ([10]; 1 μM): ns
- efficacy (% GABA EC3) ([10]; 10 μM): 145 ± 3 % GABA EC3
- efficacy (% GABA EC3) ([12]; 100 nM): ns
- efficacy (% GABA EC3) ([12]; 1 μM): ns
- efficacy (% GABA EC3) ([12]; 10 μM): 145 ± 5 % GABA EC3
- shift in affinity caused by γ2F77I [14]: approximately 300 fold
